Data taken from patent US20260317324A1, “BIFUNCTIONAL COMPOUNDS FOR DEGRADING BRAF VIA UBIQUITIN PROTEOSOME PATHWAY” (Nurix Therapeutics, Inc., priority 2023, published 2026).

Target: T1, BRAF V600E (Homo sapiens, UniProt P15056, V600E)
T1 construct: endogenous C-terminal HiBiT fusion tag on BRAF V600E allele; endogenous in cells; host or cells: A375 clone 1F10 (CRISPR-Cas9 knock-in of the HiBiT tag; parental A375 from ATCC)
Assay: BRAF HiBiT degradation assay, C-terminal HiBiT-tagged BRAF V600E A375 cells (clone 1F10), Nano-Glo HiBiT Lytic assay
Assay type: cell-based
Settings: for Dmax: A-375
Excerpt: An A375 cell line expressing a homozygous V600E mutation was purchased from ATCC (Manassas, VA, USA). An A375 clone 1F10 cell line with an endogenous C-terminal HiBiT fusion tag on BRAF V600E allele was generated internally using CRISPR-Cas9 technology and cultured in DMEM, high glucose supplemented with 10% FBS and 1× GlutaMAX. A HCT-116 BRAF−/− cell line overexpressing the C-terminal HiBiT-tagged G466V, G469A, and D594G mutants were generated by lentiviral transduction, externally at Biosettia Inc (San Diego, CA, USA). The stably transfected cells were cultured in RPMI media supplemented with 10% FBS, 1× GlutaMAX, and 0.25 μg/ml puromycin. DMEM medium, RPMI 1640 medium, GlutaMAX, fetal bovine serum (FBS), and puromycin were purchased from Gibco (Grand Island, NY, USA). HCT-116 BRAF−/− cells were purchased from Horizon Discovery (Waterbeach, UK).
The C-terminal HiBiT tagged BRAF A375 cells (monoclonal cell line, cell clone 1F10) were seeded at a density of 10,000 cells/well in 30 μL media (DMEM, high glucose supplemented with 10% FBS and 1× GlutaMAX) in white opaque 384-well plates (Corning #3570) from column 1 to column 23. The wildtype A375 cells were seeded in column 24 at the same cell density in 30 μL media. Cells were incubated at 37° C. with 5% CO2 for 24 h.
Intermediate compound dilution series (5-point, ranging from 5 mM to 0.5 μM, 10-fold dilutions in DMSO) were prepared in a source plate (Beckman Coulter cat. no. 001-16128). Final compound dilution series (11-point, ranging from 1 μM to 0.01 nM, half-log dilutions in DMSO) were stamped into the assay plate (Corning #3570, column 1-11 and 12-22) using the Echo Acoustic Liquid Handler (Beckman Coulter). Each compound was plated in duplicate, and the total volume of compound DMSO solution was 60 nL/well (0.2% final DMSO concentration). DMSO was included in wells A23-L23 and A24-L24. The DMSO-treated HiBiT-tagged samples served as Negative Control (NC) and the DMSO-treated wildtype samples served as Background Control (BC) for the HiBiT assay.
HiBiT signal was measured by a Nano-Glo HiBiT Lytic assay (Promega cat. no. N3050). HiBiT lytic detection reagent (Nano-Glo HiBiT Lytic Buffer with 1:50 Nano-Glo HiBiT Lytic Substrate and 1:100 LgBiT Protein, 40 μL) was added using Bravo. The mixture was incubated at room temperature, in the dark, and with gentle shaking for 10 min. Luminesce units (LU) were read on an EnVision plate reader 2105 (Perkin Elmer).
Percent protein remaining and viability remaining per sample were calculated as follows: […]
% Protein remaining values were plotted as a function of compound concentration. XC50 (DC50) values were determined by fitting curves using the following equation:
For the HiBiT degradation assay, the key parameters reported include: • The dose of compound that produces 50% degradation (DC50 at 50%): • DC50 at 50%: the Fitted X value (Conc.) at Y=50 (response) • Observed Dmax (Obs. Dmax) is the percentage protein degraded at maximal compound effect relative to DMSO-treated control: […]

[1] = A375 (BRAF V600E), DC50 at 50%: fitted conc. at Y=50
[2] = A375 (BRAF V600E), percentage protein degraded at maximal compound effect relative to DMSO

T1 sequence (P15056 whole entry V600E, the tested form may be a part): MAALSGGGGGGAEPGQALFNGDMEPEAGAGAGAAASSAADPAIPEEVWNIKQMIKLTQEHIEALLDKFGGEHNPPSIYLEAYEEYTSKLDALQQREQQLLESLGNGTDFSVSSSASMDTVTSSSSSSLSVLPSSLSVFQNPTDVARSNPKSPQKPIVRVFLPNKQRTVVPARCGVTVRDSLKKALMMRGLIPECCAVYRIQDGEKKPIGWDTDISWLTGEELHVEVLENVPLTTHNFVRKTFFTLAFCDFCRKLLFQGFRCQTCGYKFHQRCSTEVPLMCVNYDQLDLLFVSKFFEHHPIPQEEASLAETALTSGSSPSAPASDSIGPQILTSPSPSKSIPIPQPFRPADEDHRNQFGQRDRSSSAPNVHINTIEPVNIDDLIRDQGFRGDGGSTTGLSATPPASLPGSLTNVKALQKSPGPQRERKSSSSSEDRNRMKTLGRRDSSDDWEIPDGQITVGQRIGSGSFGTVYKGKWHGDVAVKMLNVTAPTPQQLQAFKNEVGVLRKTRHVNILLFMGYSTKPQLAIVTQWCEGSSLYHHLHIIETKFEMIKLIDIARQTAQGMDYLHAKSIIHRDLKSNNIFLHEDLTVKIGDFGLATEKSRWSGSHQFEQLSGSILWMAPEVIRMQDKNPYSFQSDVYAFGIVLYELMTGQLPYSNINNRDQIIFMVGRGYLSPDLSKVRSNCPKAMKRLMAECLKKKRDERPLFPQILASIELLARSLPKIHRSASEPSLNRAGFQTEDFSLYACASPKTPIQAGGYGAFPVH

DC50 [1] [µM]	Dmax [2] [%]	DC50 (A375 (BRAF V600E, Class 1), DC50 at 50% degradation) [µM]	Dmax (A375 (BRAF V600E, Class 1), observed Dmax, % protein degraded relative to DMSO control) [%]	Compound
0.05 to 0.5	30 to 70	–	–	CCCS(=O)(=O)Nc1cccc(-c2nc(C(C)(C)C)sc2-c2ccnc(Nc3cccc(C4CCN(C(=O)CN5CCc6cc(C7CCC(=O)NC7=O)ccc6C5)CC4)c3)n2)c1F (racemic) [Compound 104, Rac-N-(3-{2-tert-butyl-5-[2-({3-[1-(2-{6-[(3R)-2,6-dioxopiperidin-3-yl]-1,2,3,4-tetrahydroisoquinolin-2-yl}acetyl)piperidin-4-yl]phenyl}amino)pyrimidin-4-yl]-1,3-thiazol-4-yl}-2-fluorophenyl)propane-1-sulfonamide]
< 0.01	> 70	–	–	CCCS(=O)(=O)Nc1cccc(-c2nc(C3CCN(C(=O)C4CCN(C(=O)CC5CCN(c6ccc(NC7CCC(=O)NC7=O)cc6)CC5)CC4)CC3)sc2-c2ccncn2)c1F (racemic) [Compound 184, Rac-N-(3-{2-[1-(1-{2-[1-(4-{[(3R)-2,6-dioxopiperidin-3-yl]amino}phenyl)piperidin-4-yl]acetyl}piperidine-4-carbonyl)piperidin-4-yl]-5-(pyrimidin-4-yl)-1,3-thiazol-4-yl}-2-fluorophenyl)propane-1-sulfonamide]
0.05 to 0.5	30 to 70	–	–	CCCS(=O)(=O)Nc1cccc(-c2nc(C(C)(C)C)sc2-c2ccnc(NC3CC4(C3)CN(CC3CCN(CC5CCN(c6ccc(C7CCC(=O)NC7=O)cc6)CC5)CC3)C4)n2)c1F (racemic) [Compound 142, Rac-N-{3-[2-tert-butyl-5-(2-{[2-({1-[(1-{4-[(3R)-2,6-dioxopiperidin-3-yl]phenyl}piperidin-4-yl)methyl]piperidin-4-yl}methyl)-2-azaspiro[3.3]heptan-6-yl]amino}pyrimidin-4-yl)-1,3-thiazol-4-yl]-2-fluorophenyl}propane-1-sulfonamide]
0.01 to 0.05	> 70	–	–	CCCS(=O)(=O)Nc1cccc(-c2cn(-c3ccc(N4CCN(CC5CCN(c6ccc(C7CCC(=O)NC7=O)cn6)CC5)CC4)cc3)nc2-c2ccncc2)c1F (racemic) [Compound 20, Rac-N-{3-[1-(4-{4-[(1-{5-[(3R)-2,6-dioxopiperidin-3-yl]pyridin-2-yl}piperidin-4-yl)methyl]piperazin-1-yl}phenyl)-3-(pyridin-4-yl)-1H-pyrazol-4-yl]-2-fluorophenyl}propane-1-sulfonamide]
–	–	0.05 to 0.5	30 to 70	CCCS(=O)(=O)Nc1cccc(-c2nc(C3(C)CCN(C(=O)CC4CCN(C5CCN(c6ccc7c(c6)C(=O)N(C6CCC(=O)NC6=O)C7=O)CC5)CC4)CC3)sc2-c2ccnc(N)n2)c1F (racemic) [Compound 249, Rac-N-{3-[5-(2-aminopyrimidin-4-yl)-2-{1-[2-(1′-{2-[(3R)-2,6-dioxopiperidin-3-yl]-1,3-dioxo-2,3-dihydro-1H-isoindol-5-yl}-[1,4′-bipiperidin]-4-yl)acetyl]-4-methylpiperidin-4-yl}-1,3-thiazol-4-yl]-2-fluorophenyl}propane-1-sulfonamide]
0.05 to 0.5	30 to 70	–	–	CCCS(=O)(=O)Nc1cccc(-c2nc(C(C)(C)C)sc2-c2ccnc(N[C@H]3CC[C@H](N4CCN(C(=O)C5CCN(c6ccc(C7CCC(=O)NC7=O)cn6)CC5)CC4)CC3)n2)c1F (mixture of isomers) [Compound 137, N-{3-[2-tert-butyl-5-(2-{[(1r,4r)-4-[4-(1-{5-[(3RS)-2,6-dioxopiperidin-3-yl]pyridin-2-yl}piperidine-4-carbonyl)piperazin-1-yl]cyclohexyl]amino}pyrimidin-4-yl)-1,3-thiazol-4-yl]-2-fluorophenyl}propane-1-sulfonamide]
0.05 to 0.5	30 to 70	–	–	CCCS(=O)(=O)Nc1cccc(-c2nc(C(C)(C)C)sc2-c2ccnc(NC3CC4(C3)CN(C(=O)CCCCCc3ccc5c(c3)C(=O)N(C3CCC(=O)NC3=O)C5)C4)n2)c1F (racemic) [Compound 150, Rac-N-{3-[2-tert-butyl-5-(2-{[2-(6-{2-[(3R)-2,6-dioxopiperidin-3-yl]-3-oxo-2,3-dihydro-1H-isoindol-5-yl}hexanoyl)-2-azaspiro[3.3]heptan-6-yl]amino}pyrimidin-4-yl)-1,3-thiazol-4-yl]-2-fluorophenyl}propane-1-sulfonamide]
< 0.01	> 70	–	–	CCN(C)S(=O)(=O)Nc1cccc(-c2nc(C)sc2-c2ccnc(Nc3ccc(N4CCN(C(=O)CC5CCN(c6ccc(C7CCC(=O)NC7=O)cn6)CC5)CC4)cn3)n2)c1F (racemic) [Compound 39, Rac-(3R)-3-{6-[4-(2-{4-[6-({4-[4-(3-{[ethyl(methyl)sulfamoyl]amino}-2-fluorophenyl)-2-methyl-1,3-thiazol-5-yl]pyrimidin-2-yl}amino)pyridin-3-yl]piperazin-1-yl}-2-oxoethyl)piperidin-1-yl]pyridin-3-yl}piperidine-2,6-dione]
< 0.01	> 70	–	–	CCCS(=O)(=O)Nc1cccc(-c2nc(C3CCC4(CC3)CN(C(=O)CN3CCC5(CC3)CN(c3ccc6c(c3)C(=O)N(C3CCC(=O)NC3=O)C6=O)C5)C4)sc2-c2ccnc(N)n2)c1F (racemic) [Compound 236, Rac-N-{3-[5-(2-aminopyrimidin-4-yl)-2-{2-[2-(2-{2-[(3R)-2,6-dioxopiperidin-3-yl]-1,3-dioxo-2,3-dihydro-1H-isoindol-5-yl}-2,7-diazaspiro[3.5]nonan-7-yl)acetyl]-2-azaspiro[3.5]nonan-7-yl}-1,3-thiazol-4-yl]-2-fluorophenyl}propane-1-sulfonamide]
> 0.5	30 to 70	–	–	CCCS(=O)(=O)Nc1cccc(-c2nc(C(C)(C)C)sc2-c2ccnc(NC3CC4(C3)CN(C(=O)CN3CCN(CCCc5cccc6c5C(=O)N(C5CCC(=O)NC5=O)C6=O)CC3)C4)n2)c1F (racemic) [Compound 148, Rac-N-[3-(2-tert-butyl-5-{2-[(2-{2-[4-(3-{2-[(3R)-2,6-dioxopiperidin-3-yl]-1,3-dioxo-2,3-dihydro-1H-isoindol-4-yl}propyl)piperazin-1-yl]acetyl}-2-azaspiro[3.3]heptan-6-yl)amino]pyrimidin-4-yl}-1,3-thiazol-4-yl)-2-fluorophenyl]propane-1-sulfonamide]
< 0.01	> 70	–	–	CCCS(=O)(=O)Nc1cccc(-c2nc(C3CCN(C(=O)C4CCN(CC5CCN(c6ccc(C7CCC(=O)NC7=O)cc6)CC5)CC4)CC3)sc2-c2ccnc(N)n2)c1F (racemic) [Compound 228, Rac-N-{3-[5-(2-aminopyrimidin-4-yl)-2-(1-{1-[(1-{4-[(3R)-2,6-dioxopiperidin-3-yl]phenyl}piperidin-4-yl)methyl]piperidine-4-carbonyl}piperidin-4-yl)-1,3-thiazol-4-yl]-2-fluorophenyl}propane-1-sulfonamide]
0.01 to 0.05	> 70	–	–	CCCS(=O)(=O)Nc1cccc(-c2nc(C(C)(C)C)sc2-c2ccnc(Nc3cnn(CC4CCN(CC[C@@H]5CCN(c6ccc(C7CCC(=O)NC7=O)cn6)C5)CC4)c3)n2)c1F (mixture of isomers) [Compound 81, N-(3-{2-tert-butyl-5-[2-({1-[(1-{2-[(3R)-1-{5-[(3RS)-2,6-dioxopiperidin-3-yl]pyridin-2-yl}pyrrolidin-3-yl]ethyl}piperidin-4-yl)methyl]-1H-pyrazol-4-yl}amino)pyrimidin-4-yl]-1,3-thiazol-4-yl}-2-fluorophenyl)propane-1-sulfonamide]
